Reference: US20070179161A1, “Pyrazolopyrimidine compounds and their use in medicine” (VERNALIS (CAMBRIDGE) LIMITED., priority 2003, published 2007)

Tests used:
[1] = target: CDK-2 enzyme, complexed with cyclin A (Homo sapiens, UniProt P24941); assay: CDK2 enzyme inhibition assay (33P phosphorylation of peptide […], filter plate); type: biochemical; conditions: CDK-2/cyclin A, 0.1 mM ATP, 40 min at 30° C.
Outline: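 Cyclin A–complexed CDK2 (0.4 U/ml) incubated with inhibitor, 0.03 mM peptide, 0.1 mM ATP plus 33P-γ-ATP in HEPES pH 7.5, 7.5 mM Mg acetate, 0.1 mg/ml BSA, 40 min at 30 °C. Stopped with phosphoric acid; phosphorylated peptide captured on filter plates and counted by scintillation.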

[2] = target: T1, GST-Chk1 enzyme (Homo sapiens, UniProt O14757); assay: Chk1 kinase inhibition assay (33P phosphorylation of Chktide, filter plate); type: biochemical; conditions: 0.01 mM ATP, 11 nM GST-Chk1, 40 minutes at 30° C.; read-out: Chk1 IC50
T1 sequence (O14757 1-476): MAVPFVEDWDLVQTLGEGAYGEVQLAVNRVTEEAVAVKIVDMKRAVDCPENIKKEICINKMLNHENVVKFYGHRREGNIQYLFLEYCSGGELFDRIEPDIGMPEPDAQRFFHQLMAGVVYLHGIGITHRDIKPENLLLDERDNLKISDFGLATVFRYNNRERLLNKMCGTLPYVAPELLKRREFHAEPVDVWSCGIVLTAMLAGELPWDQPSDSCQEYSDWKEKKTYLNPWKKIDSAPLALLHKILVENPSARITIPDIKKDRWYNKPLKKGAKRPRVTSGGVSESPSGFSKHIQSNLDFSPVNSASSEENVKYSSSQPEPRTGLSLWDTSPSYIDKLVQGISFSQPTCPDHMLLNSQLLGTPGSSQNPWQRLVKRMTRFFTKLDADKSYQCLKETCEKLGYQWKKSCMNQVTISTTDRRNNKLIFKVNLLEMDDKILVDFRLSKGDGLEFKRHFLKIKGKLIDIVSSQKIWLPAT
Outline: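 Inhibitor and enzyme reacted 40 min at 30 °C, then stopped with 50 mM phosphoric acid. Phosphorylated peptide captured on filter plates and quantified by scintillation counting.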

[3] = target: T2, PDK1 enzyme (Homo sapiens, UniProt O15530); assay: PDK1 kinase inhibition assay (33P phosphorylation of synthetic peptide, filter plate); type: biochemical; conditions: 0.01 mM ATP, 60 min at 30° C.; read-out: PDK1 IC50
T2 sequence (O15530 1-556): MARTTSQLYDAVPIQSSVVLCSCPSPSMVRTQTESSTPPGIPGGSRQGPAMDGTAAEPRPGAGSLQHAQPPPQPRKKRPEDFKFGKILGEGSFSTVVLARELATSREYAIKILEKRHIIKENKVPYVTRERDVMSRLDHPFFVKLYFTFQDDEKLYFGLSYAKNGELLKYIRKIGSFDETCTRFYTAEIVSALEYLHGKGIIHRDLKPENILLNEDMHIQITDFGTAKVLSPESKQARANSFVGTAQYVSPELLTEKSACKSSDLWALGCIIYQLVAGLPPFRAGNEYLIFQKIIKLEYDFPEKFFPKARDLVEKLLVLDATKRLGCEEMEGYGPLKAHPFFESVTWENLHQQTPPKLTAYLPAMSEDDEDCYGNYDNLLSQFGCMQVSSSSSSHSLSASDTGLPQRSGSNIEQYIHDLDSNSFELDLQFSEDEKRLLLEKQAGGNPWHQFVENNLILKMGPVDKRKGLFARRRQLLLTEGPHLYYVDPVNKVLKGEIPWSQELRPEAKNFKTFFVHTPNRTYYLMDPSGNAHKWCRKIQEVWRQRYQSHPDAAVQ
Outline: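 PDK1 and inhibitor incubated 60 min at 30° C with 0.01 mM ATP plus 33P-γ-ATP, 0.075 mM peptide, 7.5 mM Mg acetate, 0.1 mg/ml BSA in 0.05 M Tris.HCl pH 7.5. Stopped with phosphoric acid; phosphorylated peptide captured on filter plate and counted by scintillation.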

[4] = Cell growth inhibition assay: cytotoxicity by sulforhodamine B (SRB) assay; type: cell-based; conditions: 96 h; SRB assay, 4 days with drug; cell line not named; read-out: GI50
Experimental: B. Cell Growth Inhibition Assay:
• 1) Determine cell number by haemocytometer. • 2) Using an 8 channel multipipettor, add 160 μl of the cell suspension ([…] or 2×10^4 cells/ml) to each well of a 96-well microtitre plate. • 3) Incubate overnight at 37° C. in a CO2 incubator. Day 2 • 4) Stock solutions of drugs are prepared, and serial dilutions of each drug are performed in medium to give final concentrations in wells. • 5) Using a multipipettor, 40 μl of drug (at 5× final concentration) is added to quadruplicate wells. • 6) Control wells are at either side of the 96 well plates, where 40 μl of medium is added. • 7) Incubate plates in CO2 incubator for 4 days Day 6 • 8) Tip off medium into sink and immerse plate slowly into 10% ice cold trichloroacetic acid (TCA). Leave for about 30 mins on ice. • 9) Wash plates three times in tap water by immersing the plates into baths of tap water and tipping it off. • 10) Dry in incubator. • 11) Add 100 μl of 0.4% SRB in 1% acetic acid to each well (except the last row right hand)of the 96 well plate, this is the 0% control, ie no drug, no stain. The first row will be the 100% control with no drug, but with stain). Leave for 5 mins. • 12) Wash off unbound SRB stain with four washes of 1% acetic acid. • 13) Dry plates in incubator. • 14) Solubilise SRB using 100 μl of 10 mM Tris base and put plates on plate shaker for 5 mins. • 15) Determine absorbance at 540 nm using a plate reader. Calculate mean absorbance for quadruplicate wells and express as a percentage of value for control, untreated wells.
Plot % absorbance values versus log drug concentration and determine the IC50.

Row | SMILES | IC50 [1] | IC50 [2] | IC50 [3] | GI50 [4]
1 | CSc1cnn2c(Nc3ccc(Oc4cncc(Cl)c4)cc3)cc(N[C@H]3CC[C@H](N)CC3)nc12 [Example 198] | 18 nM | 2080 nM | 4480 nM | 310 nM
2 | CN(C)S(=O)(=O)c1ccc(Nc2cc(O[C@H]3CC[C@H](N)CC3)nc3c(Cl)cnn23)cc1 [Example 168] | 14 nM | 5000 nM | 15200 nM | 210 nM
